Test results: article PMC7044277 (Nature Communications, 2020)
Values joined by “and” are separate entries in the source; they are usually repeats but may differ in a detail not shown here. Equal values may be shown once.

Assays:
Assay type in all cases: cell-based
[1] = target: 320 non-olfactory GPCRs (Homo sapiens, UniProt P21554)
[2] = target: T1, 320 non-olfactory GPCRs (Homo sapiens, UniProt P25105); conditions: receptor PTAFR; replicate values, Fig_4g
T1 construct: expressed in transfected cells; host or cells: HTLA cells

[3] = target: T2, 320 non-olfactory GPCRs (Homo sapiens, UniProt Q8IZF4)
T2 construct: expressed in transfected cells; host or cells: HTLA cells

[4] = target: 320 non-olfactory GPCRs (Homo sapiens, UniProt P61073)
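Throughout, for Fold of Basal: compound tested at 1 µM final concentration.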
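Throughout, for GPCRome agonism screen response: fold over basal response of each receptor without drug.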

320 non-olfactory GPCRs (Homo sapiens, UniProt P21554), sequence (P21554 whole entry): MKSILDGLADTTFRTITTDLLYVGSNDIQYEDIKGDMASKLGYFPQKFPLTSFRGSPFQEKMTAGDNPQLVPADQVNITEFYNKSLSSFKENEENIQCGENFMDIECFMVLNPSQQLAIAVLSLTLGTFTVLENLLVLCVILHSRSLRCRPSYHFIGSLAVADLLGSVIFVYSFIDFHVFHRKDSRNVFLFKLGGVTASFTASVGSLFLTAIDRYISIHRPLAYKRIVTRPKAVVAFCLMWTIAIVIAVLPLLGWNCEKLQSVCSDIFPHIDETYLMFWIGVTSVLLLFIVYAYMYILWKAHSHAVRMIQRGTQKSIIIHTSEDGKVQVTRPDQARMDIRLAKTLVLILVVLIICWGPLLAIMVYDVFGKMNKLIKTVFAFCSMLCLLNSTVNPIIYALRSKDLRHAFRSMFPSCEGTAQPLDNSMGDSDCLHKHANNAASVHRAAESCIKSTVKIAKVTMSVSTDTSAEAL
T1 sequence (P25105 whole entry): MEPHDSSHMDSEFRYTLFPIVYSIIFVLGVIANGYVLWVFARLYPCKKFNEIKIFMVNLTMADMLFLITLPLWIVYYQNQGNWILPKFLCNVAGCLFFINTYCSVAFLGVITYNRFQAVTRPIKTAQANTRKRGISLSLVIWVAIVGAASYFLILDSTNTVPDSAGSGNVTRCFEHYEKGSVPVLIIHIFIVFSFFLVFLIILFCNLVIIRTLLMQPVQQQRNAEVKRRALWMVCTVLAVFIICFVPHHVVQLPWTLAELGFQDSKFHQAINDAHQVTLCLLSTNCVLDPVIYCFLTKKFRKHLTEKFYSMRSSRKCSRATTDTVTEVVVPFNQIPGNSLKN
320 non-olfactory GPCRs (Homo sapiens, UniProt P61073), sequence (P61073 whole entry): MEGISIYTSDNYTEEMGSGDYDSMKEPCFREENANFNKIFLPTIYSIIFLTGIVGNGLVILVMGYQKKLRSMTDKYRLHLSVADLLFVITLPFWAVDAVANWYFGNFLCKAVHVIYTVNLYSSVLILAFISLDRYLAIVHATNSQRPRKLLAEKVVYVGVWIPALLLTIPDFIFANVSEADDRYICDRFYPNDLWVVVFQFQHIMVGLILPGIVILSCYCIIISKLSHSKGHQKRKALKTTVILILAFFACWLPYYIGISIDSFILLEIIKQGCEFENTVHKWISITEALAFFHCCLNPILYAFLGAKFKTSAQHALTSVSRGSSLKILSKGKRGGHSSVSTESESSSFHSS
T2 sequence (Q8IZF4 22-528): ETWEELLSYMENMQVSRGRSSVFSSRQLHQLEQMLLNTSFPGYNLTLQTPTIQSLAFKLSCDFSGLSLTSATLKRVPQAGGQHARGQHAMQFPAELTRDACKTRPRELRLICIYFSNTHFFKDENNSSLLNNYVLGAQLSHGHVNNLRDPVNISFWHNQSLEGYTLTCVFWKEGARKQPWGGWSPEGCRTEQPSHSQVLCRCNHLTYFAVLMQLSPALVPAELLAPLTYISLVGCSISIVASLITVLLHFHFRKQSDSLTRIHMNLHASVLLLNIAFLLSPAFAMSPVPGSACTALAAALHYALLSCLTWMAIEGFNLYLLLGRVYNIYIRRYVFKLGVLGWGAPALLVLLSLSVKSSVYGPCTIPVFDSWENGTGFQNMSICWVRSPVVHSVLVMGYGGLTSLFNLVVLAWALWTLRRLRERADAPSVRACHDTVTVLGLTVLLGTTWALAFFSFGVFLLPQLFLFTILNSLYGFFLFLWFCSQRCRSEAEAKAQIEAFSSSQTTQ

CCOc1cccc2cc(C(C)NCC3(O)CCCCC3)oc12 (stereo not shown) [O4LE6]
Fold of Basal [1]: 1.089 and 1.197 and 0.9218 and 0.8315
GPCRome agonism screen response [2]: 0.04948 and 0.5552 and 0.8041
Fold of Basal [3]: 1.8988 and 1.9 and 1.379
Fold of Basal [4]: 0.9863 and 0.8615 and 0.8471 and 0.9066
